We go through 1 compound from patent US20250381307A1, “RETRO-AAV AND USE IN TREATING NEURODEGENERATIVE DISEASES” (priority 2023, published 2025).

SMILES strings stand for the structures.

In assay [1] the target is T1, rM3Ds (Rattus norvegicus, UniProt P08483, A177S/A238G/A489L/DEL261-437/DEL441-478/E258S/I253V/I483M/INS256[…]/K178L/K182A/K255R/K484R/K486H/L173F/L482A/M480V/R171S/R176Q/R179M/S481M/T174R/T181R/T257A/Y148C).
T1 sequence (P08483 with tags, fused parts or gaps Y148C/R171S/L173F/T174R/R176Q/A177S/K178L/R179M/T181R/K182A/A238G/I253V/K255R/INS256[…]/T257A/E258S/DEL261-437/DEL441-478/M480V/S481M/L482A/I483M/K484R/K486H/A489L): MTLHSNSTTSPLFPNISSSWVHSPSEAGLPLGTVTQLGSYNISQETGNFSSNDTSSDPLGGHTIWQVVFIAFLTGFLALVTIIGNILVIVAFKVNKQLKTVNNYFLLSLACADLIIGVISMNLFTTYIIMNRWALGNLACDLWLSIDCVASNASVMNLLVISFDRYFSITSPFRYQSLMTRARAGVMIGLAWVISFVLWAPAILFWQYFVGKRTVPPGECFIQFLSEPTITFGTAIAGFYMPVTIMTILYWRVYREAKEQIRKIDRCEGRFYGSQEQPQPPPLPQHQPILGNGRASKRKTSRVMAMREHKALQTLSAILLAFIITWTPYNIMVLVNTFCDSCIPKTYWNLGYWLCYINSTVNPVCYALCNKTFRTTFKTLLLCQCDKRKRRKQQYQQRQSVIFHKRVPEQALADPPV
The assay can be described thus: In vivo electrophysiological recording in caudate/putamen of MPP+ lesioned macaques. Set-up: rM3Ds; 2A-EYFP (C); host or cells: AAV8R12-transduced striatal D1-MSNs of mice and cynomolgus macaques (in vivo and acute slices). On the procedure:
Electrophysiological recording was performed through a recording chamber while the monkey was anesthetized. Neural responses were recorded by a 16-channel linear probe (Plexon Inc, Uprobe) driven by a mechanical microdrive (Alpha Omega, FlexMT). Signals were passed through a head stage (Plexon Inc, HST/16V-G20 LN) and then split and filtered between 300 Hz and 5 kHz to identify spiking activity with an amplifier system (Plexon Inc, OmniPlex). Detected spikes were then sorted by commercially available software (Plexon Inc, Offline Sorter) for further analysis. To quantify the effect of CNO/DCZ injection, neural activity was recorded for 60 minutes following CNO/DCZ injection. The response time-course for each channel was obtained by counting the spikes within every 10-minute window and then normalizing to the maximal.
To determine the effect of CNO/DCZ injection on the direction of signal change, we performed Pearson correlation between neural responses and time using the ‘corr’ function in Matlab, which generates the correlation coefficient ‘r’ and significant level ‘p’. A neuron was considered to have “Increased” activity when r>0 and p<0.05; and considered to have “Decreased” activity when r<0 and p<0.05. Otherwise, neurons were considered to be “Unchanged” in their neural activities. The responses of all increased neurons were then averaged after being normalized by the maximal response (Crowe et al., 2014; Dai and Wang, 2018; Hirokawa et al., 2019) following CNO/DCZ injection, and then plotted as a function of time to generate the normalized population response.

Assay [2] has as its target T2, rM3Ds (Rattus norvegicus, UniProt P08483, A177S/A238G/A489L/DEL261-437/DEL441-478/E258S/I253V/I483M/INS256[…]/K178L/K182A/K255R/K484R/K486H/L173F/L482A/M480V/R171S/R176Q/R179M/S481M/T174R/T181R/T257A/Y148C).
T2 construct: rM3Ds; 2A-EYFP (C); host or cells: AAV8R12-transduced striatal D1-MSNs of mice and cynomolgus macaques (in vivo and acute slices)
Nature of the assay: Slice whole-cell recordings of rM3Ds-transduced MSNs. The class given is cell-based, mice. To be noted: AAV8R12-G88P7-rM3Ds-2A-EYFP. From the text: Mice from different groups were anesthetized with […] isoflurane, and then decapitated. The brain was quickly extracted and placed in ice-cold N-methyl-D-glucamine (NMDG) cutting solution containing (in mM): 92 NMDG, 2.5 KCl, 25 NaHCO3, 1.25 NaH2PO4, 4.5 D-Glucose, 20 HEPES, 5 L-ascorbic acid, 3 Na-pyruvate, 2 Thiourea, 10 MgSO4, 0.5 CaCl2). The pH was adjusted to 7.2±0.1 using HCl and the osmolarity was adjusted to 305±5 mosmol/L using NMDG. The solution was bubbled with 95% O2/5% CO2 prior to use. Coronal striatum slices were cut in 250-[…]m thickness with a vibratome slicer (Leica, VT1200 S), and then incubated in artificial cerebrospinal fluid (aCSF) saturated with 95% O2/5% CO2 for at least 45 min at 37° C. before recording. The aCSF contains (in mM) 125 NaCl, 1.25 KCl, 25 NaHCO3, 1.25 KH2PO4, 25 D-Glucose, 2 CaCl2) and 1 MgCl2, supplemented with 2 mM Na-pyruvate, 3 mM Myo-inositol and 0.4 mM L-ascorbic acid.
The acute striatum slice was transferred to the recording chamber with a constant perfusion of oxygenized aCSF at the rate of 3 ml/min. Neurons were visualized using an upright microscope (Olympus, BX-51) with a 40×water immersion objective at room temperature (˜25° C.). […] Neurons were quickly visualized under fluorescence microscope and then patch clamp were achieved under infrared light illumination and CCD camera. […]

Assay [3] can be described thus: Locomotion test in naive macaques without viral injection. The class given is in vivo. To be noted: naive macaques, n=3, not significant.

Regarding `C[N+]1([O-])CCN(C2=Nc3cc(Cl)ccc3Nc3ccccc32)CC1` [CNO, clozapine N-oxide], the “caudate/putamen cells activated (FIG. 15G)” value in assay [1] (CNO 36 cells, DCZ 31 cells, saline 17.9%) turned out to be 52.8%. For the same compound, the “caudate/putamen cells inactivated (FIG. 15G)” value in assay [1] (saline 33.4%) is given as 13.9%. Also, the “caudate/putamen cells unchanged (FIG. 15G)” value in assay [1] (saline 48.7%) worked out at 33.3%. Also, the “excitability of D1-MSNs in parkinsonian mice” value in assay [2] (6-OHDA mice, not with AAV8R12-G88P7-EYFP) was “increased excitability”. Besides, in assay [2] (CNO 10 μM, no effect on basal firing rate or resting membrane potential), the “excitability of labeled striatal MSNs” value is “enhancement in the excitability”. Further, the “contraversive and ipsiversive rotation (FIG. 11C)” value in assay [3] (saline 0.767±0.4296) is 0.8384±0.4152. Also, the “speed of contraversive rotations (FIG. 11G)” value in assay [3] (saline 39.07±5.889) amounted to 39.63±7.092. In assay [3] (saline 41.49±3.96), the “speed of ipsiversive rotations (FIG. 11H)” value is recorded as 42.79±4.705. In addition, the “total distance (FIG. 11F)” value in assay [3] (saline 53.12±15.3) is 59.48±18.65. Further, the “time spending in the higher portion of the observing cages (FIG. 11D)” value in assay [3] (saline 55.73±2.64) is given as 60.43±4.542. Also, the “immobile time (FIG. 11E)” value in assay [3] (saline 149.9±21.61) is reported as 149.8±22.65.
